Earlier results on 1 compound are cited in patent US20250099444A1, “Methods of Treating a Subject for Long-Haul COVID-19, and Compositions for Use in the Same” (IncellDx, Inc., priority 2022, published 2025).

This data set concerns R5-tropic HIV-1.

Each structure is given as a SMILES string.

In the case of `Cc1nnc(C(C)C)n1[C@@H]1C[C@H]2CC[C@@H](C1)N2CC[C@H](NC(=O)C1CCC(F)(F)CC1)c1ccccc1` [maraviroc, 4,4-difluoro-N-[(1S)-3-[(1S,5R)-3-(3-methyl-5-propan-2-yl-1,2,4-triazol-4-yl)-8-azabicyclo[3.2.1]octan-8-yl]-1-phenylpropyl]cyclohexane-1-carboxamide], the “incidence of hepatoxicity (MOTIVATE study)” value (96 weeks of treatment at 300 mg B.I.D) is on record as “low incidence of hepatoxicity”. Under “>5 year follow-up, HIV patients”, the “death and other health threats, long-term follow-up of MOTIVATE trials” value is “limited instances of death and other health threats such as hepatic failure and myocardial infarctions”. Further, the “HIV viral loads (MOTIVATE 1 and MOTIVATE 2)” value (individuals with R5-tropic HIV-1) is “lower levels of HIV viral loads”.
